Measured values published in patent US20240360153A1 (Regeneron Pharmaceuticals, Inc., priority 2023, published 2024).
Several values for one entry are separate records, joined by “and”; a condition that tells them apart may be missing. Equal entries are not always repeated.

What was measured:
[1] = tested on: S6K1 (Thr389) phosphorylation (mTORC1 activity) in FKBP12 knock-out 293T cells; assay: Inhibition of S6K1 (Thr389) phosphorylation in FKBP12 knock-out 293T cells (ELISA); type: cell-based, human
Method in brief: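 CRISPR-generated FKBP12 knock-out HEK293T cells, alongside wild-type, were treated in duplicate for 2 hours at 37 °C with an 8–11-point dose range (0.001 pM–10 μM). Phospho-S6K1 Thr389 quantified by ELISA as an mTORC1 activity read-out, with DMSO as negative control.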

[2] = In vitro microsomal metabolic stability, CD-1 mouse liver microsomes; type: in vitro ADME; conditions: for CLint scaled at 1 µM / microsomal CLint at 1 µM: CD-1, mouse, mouse liver microsomes, pH 7.2; for half-life at 1 µM: CD-1, pH 7.2, 0.5 mg/ml protein, NADPH; for half-life at 1 µM / Remaining (T = 60 min) / Remaining (T = NCF60 min): Mouse liver microsomes; for Remaining (T = 60 min): with NADPH; for Remaining (T = NCF60 min): without NADPH regenerating system; for Remaining (T = 60 min) / Remaining (T = NCF60 min): 60 min
Method in brief: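 Compounds at 1 μM incubated at 37° C with pooled CD-1 mouse or human liver microsomes (0.5 mg/mL protein) plus NADPH regenerating system in 50 mM potassium phosphate, pH 7.2, 3.3 mM MgCl2; sampled at 0–60 min, 60-min no-NADPH control. Parent loss by LC/MS/MS analyte/IS peak-area ratio, n=1.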

Structure (SMILES)	fold less potent compared with RAD001 ([1]; FKBP12 knock-out cells, at similar level of inhibition)	inhibition at 10 µM ([1]; Homo sapiens, HEK-293T, FKBP12 knock-out cells, 10 μM (highest tested concentration))	selectivity for FKBP12 compared with RAD001 (in words) ([1]; wild-type versus FKBP12 knock-out cells)	CLint scaled at 1 µM [2]	microsomal CLint at 1 µM [2]	half-life at 1 µM [2]	Remaining (T = 60 min) [2]	Remaining (T = NCF60 min) [2]	S6K1 inhibition achieved ([1]; FKBP12 knock-out 293T cells, concentration not given)	concentration achieving 30% inhibition of S6K1 (Thr389) phosphorylation ([1]; FKBP12 knock-out cells)	concentration achieving ~40% of S6K1 (Thr389) inhibition ([1]; FKBP12 knock-out cells)	inhibition of S6K1 (Thr389) phosphorylation in the absence of FKBP12 (in words) ([1]; FKBP12 knock-out cells)	inhibition of S6K1 phosphorylation ([1]; FKBP12 knock-out cells, 100 nM, 0.1 µM)	inhibition of S6K1 (Thr389) phosphorylation ([1]; FKBP12 knock-out cells, 10 μM (highest tested concentration), 10 µM)	inhibition at 0.1 µM ([1]; Homo sapiens, HEK-293T, FKBP12 knock-out cells, 100 nM)	IC50 ([1]; Homo sapiens, HEK-293T, FKBP12 knock-out 293T cells)
COCCN(c1ccccc1)C1C[C@@H]2CC[C@@H](C)[C@@](O)(O2)C(=O)C(=O)N2CCCC[C@H]2C(=O)OC([C@H](C)CC2CC[C@@H](O)C(OC)C2)CC[C@H](C)/C=C(\C)C(O)C(OC)C(=O)[C@H](C)C[C@H](C)/C=C/C=C/C=C/1C (stereo partly drawn) [Compound 69, (3S,6S,7E,9R,10R,12R,14S,15E,17E,19E,23S,26R,27R,34aS)-9,27-dihydroxy-3-((R)-1-((1S,3R,4R)-4-hydroxy-3-methoxycyclohexyl)propan-2-yl)-10-methoxy-21-((2-methoxyethyl)(phenyl)amino)-6,8,12,14,20,26-hexamethyl-5,6,9,10,12,13,14,21,22,23,24,25,26,27,32,33,34,34a-octadecahydro-3H-23,27-epoxypyrido[2,1-c][1]oxa[4]azacyclohentriacontine-1,11,28,29(4H,31H)-tetraone]	about 3000 fold	~30%	more selective than RAD001	0.666 L/h/kg	2.81 µL/min/mg	8.2 h	113%	99.6%	–	–	–	–	–	–	–	–
CO[C@H]1C[C@@H]2CC[C@@H](C)[C@@](O)(O2)C(=O)C(=O)N2CCCC[C@H]2C(=O)O[C@H]([C@H](C)C[C@@H]2CC[C@@H](OCCO)[C@H](OC)C2)CC(=O)[C@H](C)/C=C(\C)[C@@H](O)[C@@H](OC)C(=O)[C@H](C)C[C@H](C)/C=C/C=C/C=C/1C [RAD001, everolimus, reference compound]	–	–	–	4.61 L/h/kg	19.4 µL/min/mg	1.19 h	56%	126%	about 50%	~3.0 nM	447 nM	inhibited the mTORC1 signaling in a dose dependent manner	~35%	~80% and ~70% and 42% and 45% and 58% and 73.5% and 62% and ~60%	~30%	0.0313 µM
